From article PMC4948833, “A Sensitive and Robust High-Throughput Screening Assay for Inhibitors of the Chikungunya Virus nsP1 Capping Enzyme” (PLoS ONE, 2016)

How the values were obtained:
CHIKV nsP1 [1] = assay: FP Kd determination of GTP-Bodipy and ATP-Bodipy with purified CHIKV nsP1; conditions: fluorescence polarization, nsP1 titrated 3 μM to 1 nM, 1 hour 25°C
[2] = system: CHIKV nsP1 GTP binding site; assay: FP competition assay, displacement of GTP-Bodipy by GTP and RNA cap analogs (apparent Ki / EC50); conditions: for affinity for nsP1 GTP binding site / ability to compete with GTP-Bodipy (in words): FP competition, compared with GTP; for Ki: read-out: Average Ki, apparent Ki, 500 nM nsP1, 10 nM GTP-Bodipy, 1 hour 25°C
CHIKV nsP1 [3] = assay: HTS validation potency repeatability, EC50 of GTP analogs in two independent FP runs
[4] = system: CHIKV nsP1 guanylation activity; assay: Guanylation assay, covalent nsP1-GTP-680 formation, SDS-PAGE fluorescence; conditions: for Average POC: mean of replicates; for Average POC / Percent of Control: 100 μM analog, Fig 4 data; for Percent of Control: single replicates, scaled guanylation

Compound “Bodipy-γ-phosphate-labeled GTP analog [GTP-Bodipy]” has a Kd (CHIKV nsP1 [1]; 10 nM GTP-Bodipy) of 0.1 µM.
For “Bodipy-γ-phosphate-labeled ATP analog [ATP-Bodipy]”, the Kd (CHIKV nsP1 [1]; 5 nM ATP-Bodipy) was 2.1 µM.
`Nc1nc2c(ncn2[C@H]2C[C@H](O)[C@@H](COP(=O)(O)OP(=O)(O)OP(=O)(O)O)O2)c(=O)[nH]1` [dGTP] was tested, and the “affinity for nsP1 GTP binding site / ability to compete with GTP-Bodipy (in words)” value [2] was “less affinity compared to the others”, the Ki [2] was 4.21 µM and the “Geometric Mean Potency” value (CHIKV nsP1 [3]; first set of rows) was 5.4125. For the same compound, the “Geometric Mean Potency” value (CHIKV nsP1 [3]; second set of rows) was 5.208, the “ability to inhibit nsP1 guanylation (in words)” value ([4]; 100 μM of each GTP analog, 1 hour, Fig 4) was “greatest ability to in inhibit nsP1 guanylation activity” and the “Average POC” value [4] was 25.7895. For the same compound, the “Percent of Control” value ([4]; 100 µM) was 29.9486, the “Percent of Control” value ([4]; listed as dGTP2, 100 µM) was 23.146 and the “Percent of Control” value ([4]; listed as dGTP3, 100 µM) was 24.2738.
In the case of `Nc1ccn([C@@H]2O[C@H](COP(=O)(O)OP(=O)(O)OP(=O)(O)O)[C@@H](O)[C@H]2O)c(=O)n1` [CTP], the “affinity for nsP1 GTP binding site / ability to compete with GTP-Bodipy (in words)” value [2] is reported as “markedly decreased ability to outcompete GTP-Bodipy”, the Ki [2] is reported as 6.94 µM and the “Geometric Mean Potency” value (CHIKV nsP1 [3]; first set of rows) is reported as 4.146. The “Geometric Mean Potency” value (CHIKV nsP1 [3]; second set of rows) was 4.036, the “Average POC” value [4] was 49.6579 and the “Percent of Control” value ([4]; 100 µM) was 48.7482. For the same compound, the “Percent of Control” value ([4]; listed as CTP2, 100 µM) was 53.2419 and the “Percent of Control” value ([4]; listed as CTP3, 100 µM) was 46.9836.
In the case of `Nc1nc2c(ncn2[C@@H]2O[C@H](COP(=O)(O)OP(=O)(O)O)[C@@H](O)[C@H]2O)c(=O)[nH]1` [GDP], the “affinity for nsP1 GTP binding site / ability to compete with GTP-Bodipy (in words)” value [2] is reported as “slight decrease in affinity”, the Ki [2] is reported as 4.89 µM and the “Geometric Mean Potency” value (CHIKV nsP1 [3]; first set of rows) is reported as 4.329. For the same compound, the “Geometric Mean Potency” value (CHIKV nsP1 [3]; second set of rows) was 4.21, the “Average POC” value [4] was 78.8606 and the “Percent of Control” value ([4]; 100 µM) was 63.0295. The “Percent of Control” value ([4]; listed as GDP2, 100 µM) was 85.6756 and the “Percent of Control” value ([4]; listed as GDP3, 100 µM) was 87.8767.
